According to PubChem BioAssay AID2060329 (Molecular Pharmacology Branch, DTP, NCI, 2025):
Where “and” joins values, the source holds several entries; their conditions need not be identical. Equal entries are not always repeated.

Tested on: MCF7 multi-cell spheroids with HUVEC/MSC, viability
Test: Anticancer human tumor MCF7 cell line growth inhibition [IpAb];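 also: spheroids exposed to agents for seven days before readout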
Details: for viability, T/C: stronger effect = lower value; active = viability on the fitted dose curve at most 10% of control; inactive = the rest
Source text: Combinatorial screen of targeted agents with ipatasertib and abemaciclib in multi-cell type tumor spheroids
A high-throughput screen of multi-cell type tumor spheroids was designed to identify active combinations of targeted small molecules and ipatasertib or abemaciclib. Complex spheroids include a stromal component modeled by human endothelial cells (HUVEC) and fibroblasts modeled by human mesenchymal stem cells (MSCs). The concentration ranges selected for each drug and investigational agent were based upon clinically achievable concentrations if the clinical Cmax of the agent was known.
Compounds. The drugs and investigational agents: ipatasertib (NSC767898), abemaciclib(NSC768073), selumetinib (NSC741078), trametinib (758246), adavosertib (NSC754352), everolimus (NSC733504), sapanisertib (NSC764658), vemurafenib (NSC761431), venetoclax (NSC766270), copanlisib (NSC809693), apelisib (NSC765974), palbociblib (NSC758247), vemurafenib (NSC761431), dabrafenib (NSC764134), ravoxertinib (NSC781343), BMS-387032 (NSC767048), sotorasib (NSC818433), talazoparib (NSC767125) and afursertib (NSC778305), were obtained from the National Cancer Institute (NCI) Developmental Therapeutics Program Chemical Repository. The FDA-approved anticancer drug set is available from the NCI Developmental Therapeutics Program. […] The stock solutions were prepared in dimethyl sulfoxide (DMSO, Sigma-Aldrich, St. Louis, MO, cat. D2650) at 800-fold the tested concentration and stored at -70 degrees C prior to their use. All drugs and investigational agents were tested over a range starting from a high concentration at or near the clinical Cmax and decreasing in half-log increments. If the clinical Cmax for an agent had not been determined, the highest concentration tested was 10 microM.
NCI60 Cell Culture. NCI60 cell lines were obtained from the NCI Developmental Therapeutics Program Tumor Repository. For each lot of cells, the Repository performed Applied Biosystems AmpFLSTR Identifiler testing with PCR amplification to confirm consistency with the published Identifier STR profile for each cell line. Cells were kept in continuous culture for no more than 20 passages. The optimal seeding densities for each of the cell lines at each time point assessed were determined prior to performing the concentration response studies. Briefly, the NCI60 human tumor lines were grown as monolayers in RPMI 1640 medium supplemented with 10% FBS and 2 mmol/L L-glutamine.
An additional 9 lines were from the NCI60 cell line panel including MDA-MB-231 breast carcinoma, MDA-MB-468 breast carcinoma, MCF7 breast carcinoma, Hs578T breast carcinoma, MALME-3M melanoma, SK-MEL-2 melanoma, SK-OV-3 ovarian carcinoma, DU-145 prostate carcinoma, PC-3 prostate carcinoma, all cell lines along with major genetic alterations are listed on Table 2. Pooled donor human umbilical vein endothelial cells (HUVEC, Lonza, cat. CC-2519) and human mesenchymal stem cells (hMSC, Lonza, cat. PT-2501) were purchased from Lonza (Walkersville, MD).
PDMR cell lines were grown in complete medium (DC medium): Dulbecco's modified Eagle's medium (DMEM)/F12 supplemented with 5% fetal bovine serum (FBS), 2 mM L-glutamine, 100 U/mL penicillin and 100 µg/ml streptomycin, 0.4 µg/ml hydrocortisone, 10 ng/ml epidermal growth factor (EGF) recombinant human protein, 24 µg/mL adenine, and 0.1 mg/mL primocin. During culture from frozen stock vials, PDMR cells were cultured in the same medium containing 10 µM Y-27632 (see Table 3). The PDCs were cultured in complete DMEM/F12 media without 10 microM Y-27632 dihydrochloride for at least two passages prior to the screen. The pooled donor HUVEC and hMSC were cultured in endothelial cell growth medium 2 (PromoCell, Heidelberg, Germany, cat. C-22011) and mesenchymal stem cell growth medium 2 (PromoCell, cat. C-28009), respectively. For all experiments, HUVEC and hMSC were used at passages </=5.
[…]

[1] = curve of first compound, second compound 0.1 µM
[2] = curve of first compound, second compound 0.316 µM
[3] = curve of first compound, second compound 1 µM
[4] = curve of first compound, second compound 3.16 µM
[5] = curve of first compound, second compound 10 µM
[6] = second compound 0.1 µM, first compound 0.0316 µM
[7] = second compound 0.1 µM, first compound 0.1 µM
[8] = second compound 0.1 µM, first compound 0.316 µM
[9] = second compound 0.1 µM, first compound 1 µM
[10] = second compound 0.1 µM, first compound 3.16 µM
[11] = second compound 0.1 µM, first compound 10 µM
[12] = second compound 0.316 µM, first compound 0.0316 µM
[13] = second compound 0.316 µM, first compound 0.1 µM
[14] = second compound 0.316 µM, first compound 0.316 µM
[15] = second compound 0.316 µM, first compound 1 µM
[16] = second compound 0.316 µM, first compound 3.16 µM
[17] = second compound 0.316 µM, first compound 10 µM
[18] = second compound 1 µM, first compound 0.0316 µM
[19] = second compound 1 µM, first compound 0.1 µM
[20] = second compound 1 µM, first compound 0.316 µM
[21] = second compound 1 µM, first compound 1 µM
[22] = second compound 1 µM, first compound 3.16 µM
[23] = second compound 1 µM, first compound 10 µM

Cn1cnc2c(F)c(Nc3ccc(Br)cc3Cl)c(C(=O)NOCCO)cc21 + CC(C)NCC(C(=O)N1CCN(c2ncnc3c2C(C)CC3O)CC1)c1ccc(Cl)cc1
1410 nM: IC50 [3]
< 9.49 nM: IC50 [4] | IC50 [5]
> 3000 nM: IC50 [1] | IC50 [2]
inactive: viability, T/C (second compound 0.1 µM, first compound 0.00949 µM) 87.8% | viability, T/C (second compound 0.1 µM, first compound 0.03 µM) 89.6% | viability, T/C (second compound 0.1 µM, first compound 0.0949 µM) 92.5% | viability, T/C (second compound 0.1 µM, first compound 0.3 µM) 86.2% | viability, T/C (second compound 0.1 µM, first compound 0.949 µM) 95% | viability, T/C (second compound 0.1 µM, first compound 3 µM) 82.5% | viability, T/C (second compound 0.316 µM, first compound 0.00949 µM) 80.8% | viability, T/C (second compound 0.316 µM, first compound 0.03 µM) 86.2% | viability, T/C (second compound 0.316 µM, first compound 0.0949 µM) 89.8% | viability, T/C (second compound 0.316 µM, first compound 0.3 µM) 77.9% | viability, T/C (second compound 0.316 µM, first compound 0.949 µM) 82.5% | viability, T/C (second compound 0.316 µM, first compound 3 µM) 67% | viability, T/C (second compound 1 µM, first compound 0.00949 µM) 58.7% | viability, T/C (second compound 1 µM, first compound 0.03 µM) 73.4% | viability, T/C (second compound 1 µM, first compound 0.0949 µM) 67.4% | viability, T/C (second compound 1 µM, first compound 0.3 µM) 50.9% | viability, T/C (second compound 1 µM, first compound 0.949 µM) 54.4% | viability, T/C (second compound 1 µM, first compound 3 µM) 44.7% | viability, T/C (second compound 3.16 µM, first compound 0.00949 µM) 43% | viability, T/C (second compound 3.16 µM, first compound 0.03 µM) 48.5% | viability, T/C (second compound 3.16 µM, first compound 0.0949 µM) 43.5% | viability, T/C (second compound 3.16 µM, first compound 0.3 µM) 38.4% | viability, T/C (second compound 3.16 µM, first compound 0.949 µM) 40.8% | viability, T/C (second compound 3.16 µM, first compound 3 µM) 31.3% | viability, T/C (second compound 10 µM, first compound 0.00949 µM) 30.7% | viability, T/C (second compound 10 µM, first compound 0.03 µM) 41.4% | viability, T/C (second compound 10 µM, first compound 0.0949 µM) 37.5% | viability, T/C (second compound 10 µM, first compound 0.3 µM) 34.8% | viability, T/C (second compound 10 µM, first compound 0.949 µM) 35.5% | viability, T/C (second compound 10 µM, first compound 3 µM) 27.5%

Cc1nc(NC(=O)N2CCCC2C(N)=O)sc1-c1ccnc(C(C)(C)C(F)(F)F)c1 (configuration not stated) + CC(C)NCC(C(=O)N1CCN(c2ncnc3c2C(C)CC3O)CC1)c1ccc(Cl)cc1
1810 nM: IC50 [1]
398 nM: IC50 [2]
< 31.6 nM: IC50 [3] | IC50 [4] | IC50 [5]
inactive: viability, T/C [6] 68.9% | viability, T/C [7] 66.4% | viability, T/C [8] 56.9% | viability, T/C [9] 52.7% | viability, T/C [10] 49.6% | viability, T/C [11] 20.4% | viability, T/C [12] 62.4% | viability, T/C [13] 57% | viability, T/C [14] 50.3% | viability, T/C [15] 42.8% | viability, T/C [16] 37.8% | viability, T/C [17] 19.9% | viability, T/C [18] 45.8% | viability, T/C [19] 52.7% | viability, T/C [20] 36.2% | viability, T/C [21] 34.7% | viability, T/C [22] 34.4% | viability, T/C [23] 9.85% | viability, T/C (second compound 3.16 µM, first compound 0.0316 µM) 36.9% | viability, T/C (second compound 3.16 µM, first compound 0.1 µM) 38.1% | viability, T/C (second compound 3.16 µM, first compound 0.316 µM) 35.4% | viability, T/C (second compound 3.16 µM, first compound 1 µM) 29.5% | viability, T/C (second compound 3.16 µM, first compound 3.16 µM) 27.1% | viability, T/C (second compound 3.16 µM, first compound 10 µM) 7.55% | viability, T/C (second compound 10 µM, first compound 0.0316 µM) 28.6% | viability, T/C (second compound 10 µM, first compound 0.1 µM) 25.9% | viability, T/C (second compound 10 µM, first compound 0.316 µM) 26.1% | viability, T/C (second compound 10 µM, first compound 1 µM) 21.5% | viability, T/C (second compound 10 µM, first compound 3.16 µM) 28.4% | viability, T/C (second compound 10 µM, first compound 10 µM) 1.68%

CC(=O)c1c(C)c2cnc(Nc3ccc(N4CCNCC4)cn3)nc2n(C2CCCC2)c1=O
> 300 nM: IC50 (curve of compound)
inactive: viability, T/C (compound 0.000949 µM) 119% and 97.4% | viability, T/C (compound 0.003 µM) 101% and 97.1% | viability, T/C (compound 0.00949 µM) 95.5% and 95.7% | viability, T/C (compound 0.03 µM) 96.1% and 115% | viability, T/C (compound 0.0949 µM) 109% and 95.9% | viability, T/C (compound 0.3 µM) 89.2% and 104%

Cn1ncc(Cl)c1-c1cc(C(=O)NC(CN)Cc2cccc(F)c2)sc1Cl (configuration not stated) + CCN1CCN(Cc2ccc(Nc3ncc(F)c(-c4cc(F)c5nc(C)n(C(C)C)c5c4)n3)nc2)CC1
inactive: viability, T/C (second compound 0.01 µM, first compound 0.0316 µM) 93% | viability, T/C (second compound 0.01 µM, first compound 0.1 µM) 85.9% | viability, T/C (second compound 0.01 µM, first compound 0.316 µM) 65.2% | viability, T/C (second compound 0.01 µM, first compound 1 µM) 53.2% | viability, T/C (second compound 0.01 µM, first compound 3.16 µM) 15% | viability, T/C (second compound 0.0316 µM, first compound 0.0316 µM) 91.9% | viability, T/C (second compound 0.0316 µM, first compound 0.1 µM) 89.6% | viability, T/C (second compound 0.0316 µM, first compound 0.316 µM) 70.7% | viability, T/C (second compound 0.0316 µM, first compound 1 µM) 46.8% | viability, T/C [6] 94.7% | viability, T/C [7] 86.3% | viability, T/C [8] 69% | viability, T/C [9] 53.1% | viability, T/C [10] 5.55% | viability, T/C [12] 95.7% | viability, T/C [13] 88.4% | viability, T/C [14] 78.8% | viability, T/C [15] 64.5% | viability, T/C [18] 98.7% | viability, T/C [19] 81.1% | viability, T/C [20] 62.9% | viability, T/C [21] 56.2% | viability, T/C [22] 0.7%
838 nM: IC50 [1]
847 nM: IC50 (curve of first compound, second compound 0.01 µM)
715 nM: IC50 [3]
758 nM: IC50 (curve of first compound, second compound 0.0316 µM)
active: viability, T/C (second compound 0.01 µM, first compound 10 µM) 0.18% | viability, T/C (second compound 0.0316 µM, first compound 3.16 µM) 4.25% | viability, T/C (second compound 0.0316 µM, first compound 10 µM) 0.13% | viability, T/C [11] 0.15% | viability, T/C [16] 7.44% | viability, T/C [17] 0.17% | viability, T/C [23] 0.23%
1320 nM: IC50 [2]
